How the values were obtained:
Assay type in all cases: cell-based
JAK1 = target: T1, JAK1 (Homo sapiens, UniProt P23458); assay: Degradation-inducing effect on JAK in Jurkat cells (chemiluminescent Western blotting), JAK1; details: 1 μmol/L, 6 hours, corrected by GAPDH, DMSO as 100%
T1 construct: endogenous in cells; host or cells: Jurkat cells
Procedure: (§1) The degradation-inducing effect of the compound of the present invention on JAK family proteins was evaluated in vitro using Jurkat cells, of which cell line was derived from human leukemic T cells.
(§2) JAK1, JAK2, JAK3, and Tyk2-positive Jurkat cells were seeded at a density of 1×10^5 cells/mL on 10 cm diameter dishes and then cultured in RPMI 1640 medium (FUJIFILM Wako Pure Chemical: catalog number: 189-02025) containing 10% FBS (Thermo Fisher Scientific: catalog number: 10437-028) at 5% CO2 and 37° C. for 3 days. Then, each of the test compounds (compounds of Examples 1 to 11 and Comparative Examples 1 and 2) was added to the dish at a final concentration of 1 μmol/L, and the cells were cultured in the presence of the test compound for 6 hours. After that, the cell culture medium was collected in a 15 mL centrifuge tube (1000 rpm (240× g), room temperature, 5 min), followed by washing with PBS (1000 rpm (240× g), room temperature, 5 min). Then, the cells in the centrifuge tube were collected in a 1.5 mL tube (3000 rpm (860× g), 4° C., 5 min), lysed using RIPA buffer (25 mmol/L Tris-HCl (pH 7.4), 25 mmol/L NaCl, 0.5 mmol/L EGTA (pH 8.0), 0.1% SDS, 1% protease inhibitor), sonicated at ice temperature (cycles of [7.5 sec sonication, 5 sec off] for 5 min) and subjected to centrifugation (15000 rpm (21600× g), 4° C., 30 min). The thus-obtained supernatant was used as the protein solution. Using the BCA protein assay kit (Thermo Fisher Scientific: catalog number: 23225), the protein concentration of the protein solution of each test compound was measured according to the kit instructions, and then adjusted to 1.4 mg/mL with RIPA buffer. The thus-adjusted protein solutions were subjected to a fully automated Western blotting device (Simple Westerns Wes: proteinSimple) to detect the protein levels (JAK1, JAK2, JAK3, and Tyk2 as the target proteins, and GAPDH (Glyceraldehyde 3-phosphate dehydrogenase) as the internal standard protein) in the protein solutions by chemiluminescent Western blotting.
(§3) Furthermore, the luminescence levels of JAK1, JAK2, JAK3, and Tyk2 detected by chemiluminescent Western blotting were quantified numerically by using an analysis software (Compass software for Simple Western (version 4.0.0)) attached to the fully automated Western blotting device. The numerical values of the quantified luminescence levels were corrected by the protein levels of the internal standard protein, i.e., GAPDH, (target protein levels/GAPDH protein levels), and compared among the test compounds with dimethyl sulfoxide (DMSO) as 100%.

JAK2 = target: T2, JAK2 (Homo sapiens, UniProt O60674); assay: Degradation-inducing effect on JAK in Jurkat cells (chemiluminescent Western blotting), JAK2; details: 1 μmol/L, 6 hours, corrected by GAPDH, DMSO as 100%
T2 construct: endogenous in cells; host or cells: Jurkat cells
T2 sequence (O60674 whole entry): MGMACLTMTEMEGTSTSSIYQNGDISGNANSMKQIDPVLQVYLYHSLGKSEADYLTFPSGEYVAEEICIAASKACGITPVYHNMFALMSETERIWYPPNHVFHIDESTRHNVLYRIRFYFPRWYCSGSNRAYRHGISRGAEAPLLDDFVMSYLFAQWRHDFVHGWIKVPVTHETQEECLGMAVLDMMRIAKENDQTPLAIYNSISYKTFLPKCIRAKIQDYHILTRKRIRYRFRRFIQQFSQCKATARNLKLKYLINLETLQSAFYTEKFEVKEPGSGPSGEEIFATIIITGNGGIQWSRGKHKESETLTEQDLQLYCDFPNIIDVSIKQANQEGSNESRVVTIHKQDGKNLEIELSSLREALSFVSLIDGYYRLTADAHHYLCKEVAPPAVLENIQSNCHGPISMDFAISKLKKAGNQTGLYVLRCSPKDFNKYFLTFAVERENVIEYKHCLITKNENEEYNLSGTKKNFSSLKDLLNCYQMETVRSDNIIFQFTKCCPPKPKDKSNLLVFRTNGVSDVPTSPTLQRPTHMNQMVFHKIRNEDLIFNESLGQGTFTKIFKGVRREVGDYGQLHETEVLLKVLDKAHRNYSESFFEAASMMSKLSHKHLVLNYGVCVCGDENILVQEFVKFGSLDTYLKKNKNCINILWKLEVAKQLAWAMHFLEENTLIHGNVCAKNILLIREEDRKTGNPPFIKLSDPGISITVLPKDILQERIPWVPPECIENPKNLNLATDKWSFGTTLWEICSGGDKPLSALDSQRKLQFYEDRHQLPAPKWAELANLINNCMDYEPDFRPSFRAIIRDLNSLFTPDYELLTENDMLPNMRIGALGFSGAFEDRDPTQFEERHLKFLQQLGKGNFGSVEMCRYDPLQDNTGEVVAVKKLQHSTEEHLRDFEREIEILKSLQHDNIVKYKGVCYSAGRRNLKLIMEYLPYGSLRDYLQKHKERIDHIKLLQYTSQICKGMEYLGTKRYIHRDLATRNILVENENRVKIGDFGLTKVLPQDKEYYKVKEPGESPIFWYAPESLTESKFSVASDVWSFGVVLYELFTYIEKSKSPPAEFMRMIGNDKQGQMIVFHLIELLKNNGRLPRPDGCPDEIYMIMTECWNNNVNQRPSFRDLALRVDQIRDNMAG
Procedure: as §1, §2, §3

JAK3 = target: T3, JAK3 (Homo sapiens, UniProt P52333); assay: Degradation-inducing effect on JAK in Jurkat cells (chemiluminescent Western blotting), JAK3; details: 1 μmol/L, 6 hours, corrected by GAPDH, DMSO as 100%, read-out: JAK protein ratio of Jurkat cells after treatment of each test compound: JAK3
T3 construct: endogenous in cells; host or cells: Jurkat cells
T3 sequence (P52333 1-1124): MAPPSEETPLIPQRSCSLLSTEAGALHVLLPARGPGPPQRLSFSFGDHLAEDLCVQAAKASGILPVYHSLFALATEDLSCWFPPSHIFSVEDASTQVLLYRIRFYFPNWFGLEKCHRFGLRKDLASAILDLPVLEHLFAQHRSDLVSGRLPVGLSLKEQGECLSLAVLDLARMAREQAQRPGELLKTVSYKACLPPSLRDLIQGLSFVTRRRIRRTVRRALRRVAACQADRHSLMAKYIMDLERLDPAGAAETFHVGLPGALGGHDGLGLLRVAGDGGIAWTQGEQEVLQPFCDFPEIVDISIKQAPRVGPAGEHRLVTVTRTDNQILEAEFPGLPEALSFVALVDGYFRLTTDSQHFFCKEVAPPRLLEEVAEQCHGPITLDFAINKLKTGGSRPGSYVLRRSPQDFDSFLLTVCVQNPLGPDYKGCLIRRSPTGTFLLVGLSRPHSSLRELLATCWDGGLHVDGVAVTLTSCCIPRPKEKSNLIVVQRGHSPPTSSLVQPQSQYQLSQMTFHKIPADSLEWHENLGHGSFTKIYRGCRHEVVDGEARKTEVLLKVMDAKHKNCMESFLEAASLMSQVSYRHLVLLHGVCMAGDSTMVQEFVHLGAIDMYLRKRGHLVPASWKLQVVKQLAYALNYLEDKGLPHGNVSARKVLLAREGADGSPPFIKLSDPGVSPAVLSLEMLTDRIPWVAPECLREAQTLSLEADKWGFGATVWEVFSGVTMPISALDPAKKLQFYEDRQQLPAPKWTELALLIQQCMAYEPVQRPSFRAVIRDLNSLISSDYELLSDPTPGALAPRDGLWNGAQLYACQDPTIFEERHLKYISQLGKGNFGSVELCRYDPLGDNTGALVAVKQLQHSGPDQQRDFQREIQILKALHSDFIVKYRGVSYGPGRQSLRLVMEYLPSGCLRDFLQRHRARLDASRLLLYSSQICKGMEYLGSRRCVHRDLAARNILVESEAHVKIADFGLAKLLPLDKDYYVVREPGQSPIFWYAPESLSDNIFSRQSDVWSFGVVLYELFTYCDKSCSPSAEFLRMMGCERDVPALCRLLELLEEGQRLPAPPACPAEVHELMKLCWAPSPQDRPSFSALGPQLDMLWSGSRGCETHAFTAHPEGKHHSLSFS
Procedure: as §1, §2, §3

Tyk2 = target: T4, Tyk2 (Homo sapiens, UniProt P29597); assay: Degradation-inducing effect on JAK in Jurkat cells (chemiluminescent Western blotting), Tyk2; details: 1 μmol/L, 6 hours; for JAK protein ratio of Jurkat cells after treatment of each test compound: Tyk2: corrected by GAPDH, DMSO as 100%
T4 construct: endogenous in cells; host or cells: Jurkat cells
T4 sequence (P29597 whole entry): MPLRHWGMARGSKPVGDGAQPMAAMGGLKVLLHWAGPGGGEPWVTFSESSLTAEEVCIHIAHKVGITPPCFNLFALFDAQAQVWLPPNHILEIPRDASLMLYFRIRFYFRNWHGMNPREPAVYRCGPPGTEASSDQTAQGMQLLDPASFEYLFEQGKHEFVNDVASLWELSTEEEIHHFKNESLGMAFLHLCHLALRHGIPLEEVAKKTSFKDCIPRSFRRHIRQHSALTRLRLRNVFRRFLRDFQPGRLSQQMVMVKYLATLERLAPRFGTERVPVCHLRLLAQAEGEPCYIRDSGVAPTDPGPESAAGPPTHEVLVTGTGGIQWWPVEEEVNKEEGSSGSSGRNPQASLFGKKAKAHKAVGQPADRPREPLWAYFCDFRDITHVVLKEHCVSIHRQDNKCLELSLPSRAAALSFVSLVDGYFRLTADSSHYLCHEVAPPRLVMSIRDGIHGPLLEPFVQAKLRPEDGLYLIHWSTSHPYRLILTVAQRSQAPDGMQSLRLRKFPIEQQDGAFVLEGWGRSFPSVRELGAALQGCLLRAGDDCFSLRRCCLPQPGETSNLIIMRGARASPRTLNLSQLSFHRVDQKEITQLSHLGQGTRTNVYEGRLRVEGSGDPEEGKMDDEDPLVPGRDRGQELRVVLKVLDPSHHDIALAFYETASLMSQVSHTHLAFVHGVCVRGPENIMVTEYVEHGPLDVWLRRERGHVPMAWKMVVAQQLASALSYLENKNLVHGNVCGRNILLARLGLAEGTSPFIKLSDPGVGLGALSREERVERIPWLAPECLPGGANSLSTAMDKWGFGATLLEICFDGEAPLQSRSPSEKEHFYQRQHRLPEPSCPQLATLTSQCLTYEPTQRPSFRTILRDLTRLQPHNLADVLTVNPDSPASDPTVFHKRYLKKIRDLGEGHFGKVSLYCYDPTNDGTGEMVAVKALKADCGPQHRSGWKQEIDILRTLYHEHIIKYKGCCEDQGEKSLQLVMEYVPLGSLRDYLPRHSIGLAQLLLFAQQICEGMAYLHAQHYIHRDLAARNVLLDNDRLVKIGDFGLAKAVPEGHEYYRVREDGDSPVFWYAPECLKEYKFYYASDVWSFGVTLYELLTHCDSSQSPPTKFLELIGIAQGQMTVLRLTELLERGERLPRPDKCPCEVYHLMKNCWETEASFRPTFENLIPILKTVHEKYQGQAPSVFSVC
Procedure: as §1, §2, §3

T1 sequence (P23458 whole entry): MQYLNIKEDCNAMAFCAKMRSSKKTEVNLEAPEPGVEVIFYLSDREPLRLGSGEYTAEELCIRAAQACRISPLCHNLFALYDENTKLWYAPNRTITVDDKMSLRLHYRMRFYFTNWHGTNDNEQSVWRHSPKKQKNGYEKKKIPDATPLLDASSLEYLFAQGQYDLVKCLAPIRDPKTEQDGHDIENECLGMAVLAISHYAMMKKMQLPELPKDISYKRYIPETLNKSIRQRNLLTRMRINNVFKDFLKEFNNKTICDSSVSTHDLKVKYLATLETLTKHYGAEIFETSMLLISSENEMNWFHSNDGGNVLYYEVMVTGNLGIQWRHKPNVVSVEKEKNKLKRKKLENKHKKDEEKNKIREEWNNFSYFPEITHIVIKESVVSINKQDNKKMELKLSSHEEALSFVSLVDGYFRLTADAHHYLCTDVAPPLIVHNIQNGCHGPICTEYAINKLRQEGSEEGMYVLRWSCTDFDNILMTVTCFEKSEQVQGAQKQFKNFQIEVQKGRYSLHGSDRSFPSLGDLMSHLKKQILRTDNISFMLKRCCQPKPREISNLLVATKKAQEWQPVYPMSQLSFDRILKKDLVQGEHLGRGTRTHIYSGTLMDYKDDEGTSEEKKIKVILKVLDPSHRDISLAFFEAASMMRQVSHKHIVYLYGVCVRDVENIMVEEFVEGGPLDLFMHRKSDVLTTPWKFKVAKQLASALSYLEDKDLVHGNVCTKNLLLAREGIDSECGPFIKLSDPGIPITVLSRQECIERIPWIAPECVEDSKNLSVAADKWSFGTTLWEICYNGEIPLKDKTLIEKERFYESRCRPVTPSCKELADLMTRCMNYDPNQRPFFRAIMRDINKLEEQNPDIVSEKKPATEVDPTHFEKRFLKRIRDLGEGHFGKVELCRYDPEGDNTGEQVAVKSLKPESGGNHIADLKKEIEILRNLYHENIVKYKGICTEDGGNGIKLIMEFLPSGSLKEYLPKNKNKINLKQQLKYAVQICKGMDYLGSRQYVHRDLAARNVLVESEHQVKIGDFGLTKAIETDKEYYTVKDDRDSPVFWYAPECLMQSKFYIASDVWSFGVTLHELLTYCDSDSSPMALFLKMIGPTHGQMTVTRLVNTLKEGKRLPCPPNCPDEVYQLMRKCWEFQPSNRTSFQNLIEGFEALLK

JAK protein ratio of Jurkat cells after treatment of each test compound: JAK1 (JAK1)	JAK protein ratio of Jurkat cells after treatment of each test compound: JAK2 (JAK2)	JAK3 protein level relative to DMSO at 1 µM (JAK3)	JAK protein ratio of Jurkat cells after treatment of each test compound: Tyk2 (Tyk2)	protein level of Tyk2 (in words) (Tyk2)	SMILES
118.2%	117.6%	97.5%	51.6%		CNC(=O)c1cnc(Nc2ccc(C(=O)NCCCCCCCC(=O)N[C@H](C(=O)N3C[C@H](O)C[C@H]3C(=O)NCc3ccc(-c4scnc4C)cc3)C(C)(C)C)cn2)cc1Nc1cccc(C(=O)NC)c1OC [Example 3, 6-((5-((8-(((S)-1-((2S,4R)-4-Hydroxy-2-((4-(4-methylthiazol-5-yl)benzyl)carbamoyl)pyrrolidin-1-yl)-3,3-dimethyl-1-oxobutan-2-yl)amino)-8-oxooctyl)carbamoyl)pyridin-2-yl)amino)-4-((2-methoxy-3-(methylcarbamoyl)phenyl)amino)-N-methylnicotinamide]
102.6%	122.5%	99%	97.0%	not reduced	CNC(=O)c1cnc(Nc2ccc(C(=O)NCCCCCCCCCC(=O)N[C@H](C(=O)N3C[C@@H](O)C[C@H]3C(=O)NCc3ccc(-c4scnc4C)cc3)C(C)(C)C)cn2)cc1Nc1cccc(C(=O)NC)c1OC [Example 8, 6-((5-((10-(((S)-1-((2S,4S)-4-Hydroxy-2-((4-(4-methylthiazol-5-yl)benzyl)carbamoyl)pyrrolidin-1-yl)-3,3-dimethyl-1-oxobutan-2-yl)amino)-10-oxodecyl)carbamoyl)pyridin-2-yl)amino)-4-((2-methoxy-3-(methylcarbamoyl)phenyl)amino)-N-methylnicotinamide]
129.1%	158.8%	129%	41.7%		CNC(=O)c1cnc(Nc2ccc(C(=O)NCCCCCCCCC(=O)N[C@H](C(=O)N3C[C@H](O)C[C@H]3C(=O)NCc3ccc(-c4scnc4C)cc3)C(C)(C)C)cn2)cc1Nc1cccc(C(=O)NC)c1OC [Example 4, 6-((5-((9-(((S)-1-((2S,4R)-4-Hydroxy-2-((4-(4-methylthiazol-5-yl)benzyl)carbamoyl)pyrrolidin-1-yl)-3,3-dimethyl-1-oxobutan-2-yl)amino)-9-oxononyl)carbamoyl)pyridin-2-yl)amino)-4-((2-methoxy-3-(methylcarbamoyl)phenyl)amino)-N-methylnicotinamide]
112.1%	108.2%	112%	47.1%		CNC(=O)c1cnc(Nc2ccc(C(=O)NCCCCCCCCCCCC(=O)N[C@H](C(=O)N3C[C@H](O)C[C@H]3C(=O)NCc3ccc(-c4scnc4C)cc3)C(C)(C)C)cn2)cc1Nc1cccc(C(=O)NC)c1OC [Example 7, 6-((5-((12-(((S)-1-((2S,4R)-4-Hydroxy-2-((4-(4-methylthiazol-5-yl)benzyl)carbamoyl)pyrrolidin-1-yl)-3,3-dimethyl-1-oxobutan-2-yl)amino)-12-oxododecyl)carbamoyl)pyridin-2-yl)amino)-4-((2-methoxy-3-(methylcarbamoyl)phenyl)amino)-N-methylnicotinamide]
108.7%	101.7%	89.8%	100.1%	not reduced	CNC(=O)c1cnc(Nc2ccc(F)cn2)cc1Nc1cccc(C(=O)OCCCCCCCCCC(=O)N[C@H](C(=O)N2C[C@H](O)C[C@H]2C(=O)NCc2ccc(-c3scnc3C)cc2)C(C)(C)C)c1OC [Comparative Example 2, 10-(((S)-1-((2S,4R)-4-Hydroxy 2-((4-(4-methylthiazol-5-yl)benzyl)carbamoyl)pyrrolidin-1-yl)-3,3-dimethyl-1-oxobutan-2-yl)amino)-10-oxodecyl 3-((2-((5-fluoropyridin-2-yl)amino)-5-(methylcarbamoyl)pyridin-4-yl)amino)-2-methoxybenzoate, reference compound]
111.9%	121.3%	114%	82.8%		CNC(=O)c1cnc(Nc2ccc(C(=O)NCCCC(=O)N[C@H](C(=O)N3C[C@H](O)C[C@H]3C(=O)NCc3ccc(-c4scnc4C)cc3)C(C)(C)C)cn2)cc1Nc1cccc(C(=O)NC)c1OC [Example 1]
